Patent US20240100027A1, “INHIBITION OF PROSTAGLANDIN DEGRADING ENZYME 15-PGDH TO IMPROVE JOINT STRUCTURE AND FUNCTION” (The Board of Trustees of the Leland Stanford Junior …, priority 2020, published 2024)

Experiments:
[1] = test system: human OA cartilage explants; experiment: Human OA cartilage explants: DMMB assay for sGAG; type: cell-based; conditions: SW 10 uM, 7 days, vs vehicle
Source text: Human cartilage tissue collection and treatment. Human cartilage samples were harvested from the surgical knee tissue discards of patients (n>5, age ranging from 55-75 years) undergoing total knee arthroplasty according to approved human subjects institutional review board protocols at Stanford University. Informed, written consent was given by the patients prior to the study. Cylindrical explants (4 mm diameter, 2-4 mm thickness) were extracted from the cartilage samples using standard biopsy punches (Integra, NJ. USA). […]
1,9-dimethylmethylene Blue (DMMB) and Pico-green Assays. […] Briefly, 20 μL sample was mixed with 200 μL DMMB solution (16 mg DMMB dye dissolved in an aqueous solution of 0.03 m NaCl, 40 mm glycine, 9.5% 0.1 m acetic acid, pH 3.0) and absorbance was measured at 525 nm immediately. […] The DNA content in OA explants was measured by Pico-green assay (Quant-iT Pico-green dsDNA Assay Kit, Invitrogen) as per manufacturer's instructions using the same papain digest supernatant of the OA explants. Quantified sulfated GAG content in OA cartilage explants was normalized to the weight of corresponding explants and the DNA content.
(§1) Next, the effects of 15-PGDH inhibition in human OA cartilage were tested. […] Sulphated glycosaminoglycans (sGAG) were also independently quantified through measurements with the DMMB dye. […]

PGE2 levels = conditions: in vivo, bone marrow, colon, lung and liver, cited from earlier work
[2] = test system: human OA cartilage explants; experiment: Human OA cartilage explants: Safranin O staining; type: cell-based; conditions: SW 10 uM, 1 week, all zones, especially middle and deep zone
Source text: (§2) Human cartilage tissue collection and treatment. Human cartilage samples were harvested from the surgical knee tissue discards of patients (n>5, age ranging from 55-75 years) undergoing total knee arthroplasty according to approved human subjects institutional review board protocols at Stanford University. Informed, written consent was given by the patients prior to the study. Cylindrical explants (4 mm diameter, 2-4 mm thickness) were extracted from the cartilage samples using standard biopsy punches (Integra, NJ. USA). Cartilage explants were cultured in DMEM-F12 medium supplemented with 10% fetal bovine serum (FBS), 25 μg mL^−1 ascorbic acid, 1× glutamine, and 1× antibiotic-antimycotic solution prior to experiments. To assess the effect of 15-PGDH inhibition, explants were treated with Vehicle (DMSO) or SW (10 uM) for 1 week prior to the assessment. Fresh media was added to the explants every other day.
After 1 week of treatment with SW, explants were fixed in 4% paraformaldehyde, washed with PBS, and cryopreserved in 30% sucrose solution overnight. […] Explants from at least five different patient donors and multiple (>5) sections were used for quantitative analysis.
as §1

[3] = test system: OA knee joints of adult mice; experiment: Tibia loading (ACL rupture) post-traumatic OA in adult mice, intra-articular injections: Safranin O histology and OARSI scoring; type: in vivo, mice C57BL/6; conditions: tibial compression OA, intra-articular twice a week for 4 weeks
Source text: (§3) Tibia loading to induce osteoarthritis in young mice. Briefly, mice were anesthetized using 2.5% isoflurane inhalation under 4 L/min of oxygen. The right tibia was positioned vertically, with the ankle upward and the knee downward in deep flexion between loading cups. Using a material testing machine (Instron ElectroPulse E1000), axial compression was applied through the knee via the upper cup, while the lower cup was fixed and linked to the load cell. The ACL tear was confirmed by the release of compressive force during compression. Mice were allowed to progress for 6 weeks after loading (n=8 for each group). Contralateral left limb served as a non-loaded control. Mice blood serum was collected via retro-orbital bleeding to do multiplex autoantibody assay. Mice were sacrificed by cervical dislocation and knee joint were collected for assessment.
(§4) Histology on mouse joints and human cartilage explants. Mouse joints were fixed in 4% paraformaldehyde overnight, dehydrated in ethanol and embedded in paraffin. Sagittal Sections (5 μm) of the mouse joints were cut by the Histoserv, Inc (Germantown, MD). Cartilage histology was performed by Safranin O (Saf O) staining as previously reported (Smeriglio et al., 2020, Sci Transi. Med. 12:eaax2332). Joints were assessed through blinded grading with the OARSI scoring system. Briefly, sections of mouse joints were stained with Safranin O, and cartilage degeneration was evaluated by assigning numbers 0 to 4 for increasing depth of cartilage degeneration (OARSI scoring system). For the summit scores, five regions were summed.
To test whether 15-PGDH inhibition would be protective in younger, adult mice upon induction of OA, OA was induced in young, adult mice (3 months old) by application of tibial compression on the mouse knee leading to anterior crucial ligament (ACL) rupture. This injury model recapitulates ACL injury frequently observed in human patients. After 1 week of injury, local intra-articular injections of vehicle or SW were given twice a week for 4 weeks. […]

cartilage from aged mice = experiment: RNA-seq, differential gene expression and Ingenuity Pathway Analysis of cartilage from aged mice treated systemically; type: in vivo
Method: Mice handling. […] Aged (24-28 mo.) mice C57BL/6 were obtained from the US National Institute on Aging (NIA) aged colony.
RNA extraction and library preparation from mouse joints for RNA seq. Knee joint microdissection was performed under a stereoscope to collect cartilage tissue by carefully eliminating any tendons, synovial membrane and meniscal residue and then shaving the cartilage tissue from the underlying bone (Smeriglio et al., 2020, Sci Transl. Med. 12:eaax2332). The isolated cartilage tissue was kept in RNA later (Ambion) and stored at −80° C. for later use. Cartilage tissue was homogenized in Trizol using a bullet blender (Next Advance), followed by RNA extraction and purification using RNeasy micro-kit (Qiagen). cDNA libraries were constructed from 10 ng total RNA using SMARTer stranded Total RNA-Seq kit v3 (Takara Bio). Libraries were sequenced to 25-30×10^6 150-bp paired end reads per sample on an Illumina NovaSeq platform (Novogene, CA).
Differential Gene Expression Analysis. For the RNA-seq analysis, pseudo aligner Salmon was used to quantify the expression of transcripts. Sequences were also aligned against the Mus musculus genome (mm9) using the STAR aligner. A counts matrix containing the number of counts for each gene and each sample was obtained. This matrix was analyzed by DESeq2 to calculate statistical analysis of significance of genes between samples. […] Functional analysis of differentially expressed genes was analyzed using Ingenuity Pathway Analysis (IPA) and DAVID bioinformatic tools.
To identify the downstream molecular pathways through which 15-PGDH may exert its effect on aged cartilage, transcriptomic analysis of vehicle and SW treated cartilage from aged mice (24 mo) was performed and compared to cartilage from young adult mice (3 mo) through RNA-seq.

15-PGDH = 15-PGDH (Mus musculus, UniProt Q8VCC1); conditions: aged muscles, one month of daily intraperitoneal treatment, cited from earlier work
15-PGDH, sequence (Q8VCC1 whole entry): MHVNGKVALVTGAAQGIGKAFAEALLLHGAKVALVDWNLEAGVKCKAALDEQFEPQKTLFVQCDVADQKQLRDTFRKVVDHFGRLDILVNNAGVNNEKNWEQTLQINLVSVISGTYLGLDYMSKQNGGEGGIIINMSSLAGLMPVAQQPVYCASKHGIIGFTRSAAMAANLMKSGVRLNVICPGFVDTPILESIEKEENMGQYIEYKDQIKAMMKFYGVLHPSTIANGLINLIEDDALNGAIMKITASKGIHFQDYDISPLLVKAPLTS

[4] = test system: chondrocytes in articular cartilage; experiment: Transmission electron microscopy of chondrocytes in articular cartilage, mitochondria per cell; type: in vivo, mice
Method: Transmission electron microscopy (TEM). Knee joints were fixed in Karnovsky's fixative composed of 2% Glutaraldehyde (EMS Cat #16000) and 4% paraformaldehyde (EMS Cat #15700) in 0.1M Sodium Cacodylate (EMS Cat #12300) pH 7.4 for 4 hours at 4° C. Joints were washed with cold PBS 3× and then decalcified in 14% EDTA solution in PBS for 3 days at 4° C. Samples were washed with PBS and placed in cold/aqueous 1% osmium tetroxide (EMS Cat #19100) on a rotator and allowed to warm to room temperature (RT) for 1 hr. Samples were washed 3× with ultrafiltered water followed by staining in 1% uranyl acetate at RT for 2 hours. Samples were then dehydrated in a series of ethanol washes for 30 minutes each at RT beginning at 50%, 70% and finally moved to 4° C. overnight. They were placed in cold 95% EtOH and allowed to warm to RT, changed to 100% 2×, then Propylene Oxide (PO) for 15 min. Samples were infiltrated with EMbed-812 resin (EMS Cat #14120) mixed 1:2, 1:1, and 2:1 with PO for 2 hrs each with leaving samples in 2:1 resin to PO overnight rotating at RT in the hood. The samples were then placed into EMbed-812 for 2 to 4 hours then placed into molds w/labels and fresh resin, orientated and placed into 65° C. oven overnight. […]

knee joints of aged mice = experiment: Systemic i.p. treatment of aged mice: knee joint Safranin O histology and OARSI scoring; type: in vivo, mice C57BL/6; conditions: 5 mg/kg i.p. daily for 1 month
Method: Mice handling. All experiments and protocols were performed in accordance with the institutional guidelines of Stanford University and Administrative Panel on Laboratory Animal Care (APLAC). Aged (24-28 mo.) mice C57BL/6 were obtained from the US National Institute on Aging (NIA) aged colony.
as §4
SW was previously extensively characterized as a specific inhibitor of 15-PGDH in vitro (ki of 0.1 nM).

[5] = test system: inflammatory cytokine levels; experiment: Luminex cytokine panel on serum of OA mice given intra-articular injections; type: in vivo; conditions: vs vehicle
Source text: as §3
(§5) Luminex Assay. This assay was performed at the Human Immune Monitoring Center at Stanford University. Human 76-plex or mouse 48-plex kits (eBioscience/Affymetrix) were used according to the manufacturer's recommendations. Briefly, antibody beads and samples were added to a 96-well plate and incubated at room temperature for 2 hours, followed by overnight incubation at 4° C. with shaking at 500 to 600 rpm. Plates were then washed in a w ash buffer, and biotinylated detection antibody was added for 2 hours at room temperature with shaking. Plate was washed, and streptavidin-phycoerythrin was added After 40 min incubation and washes, reading buffer was added to the wells Plates were read using a Luminex 200 instrument with a lower bound of 50 beads per sample per cytokine. Custom assay control beads were added to all wells. The raw MFI read-outs of all samples were used and analyzed by GraphPad prism.
To test whether 15-PGDH inhibition would be protective in younger, adult mice upon induction of OA, OA was induced in young, adult mice (3 months old) by application of tibial compression on the mouse knee leading to anterior crucial ligament (ACL) rupture. This injury model recapitulates ACL injury frequently observed in human patients. After 1 week of injury, local intra-articular injections of vehicle or SW were given twice a week for 4 weeks. […] Upon blinded scoring of mice knee joints based on the OARSI scoring system, it was observed that the maximal damage score. […] To assess the inflammation in these mice, serum was utilized from vehicle or SW injected mice to test for a 39-plex Luminex cytokine panel. […] These observations corroborated that local 15-PGDH inhibition by SW treatment not only enhances cartilage regeneration but also decreases the inflammation in osteoarthritic mice.

[6] = test system: human OA cartilage explants; experiment: Human OA cartilage explants: Ki67 immunostaining; type: cell-based
Source text: as §2
Cell cycle marker-Ki67 immunostaining. Human OA explants treated with vehicle and SW were fixed and embedded in OCT as described in previous section, 10 μm sections on poly-1-lysine-coated glass slides were obtained using a cryostat. Immunostaining was performed using a standard protocol. […]
as §1

[7] = test system: human OA cartilage explants; experiment: Human OA cartilage explants: Luminex cytokine panel on culture medium; type: cell-based; conditions: culture medium (secretome) of SW treated explants vs vehicle
Source text: as §2, §5, §1

[8] = SW treated aged cartilage, almost to the levels of young cartilage
[9] = aged cartilage, SW vs vehicle, among 301 DEGs

## CCCC[S+]([O-])c1sc2nc(-c3cccs3)cc(-c3ccccc3)c2c1N (stereo not shown) [SW033291, 2-(butylsulfinyl)-4-phenyl-6-(thiophen-2-yl)thieno[2,3-b]pyridin-3-amine]
[1]
  GAG content (sGAG, DMMB dye): significantly increased
PGE2 levels
  increase of PGE2 levels: 2 fold
PGE2 levels; compared with PGE2 increase
  increase of PGD2 levels: to a lesser extent
[2]
  GAG staining (Safranin O): increase in GAG staining
[3]; 3-month-old mice, 6 weeks
  GAG staining and cartilage degradation (Safranin O): higher GAG staining and reduced cartilage degradation
[3]; vs vehicle
  OARSI Maximum score: significantly decreased
  OARSI Summit score: significantly decreased
Cartilage from aged mice; SW treated aged cartilage
  genes involved in mitochondrial function and metabolism (IPA): significant upregulation
Cartilage from aged mice; [8]
  COX5a expression: significantly upregulated
  Ndufa9 expression: significantly upregulated
Cartilage from aged mice; [9]
  number of downregulated differentially expressed genes: 154
  number of upregulated differentially expressed genes: 147
15-PGDH; LC-MS/MS
  levels of PGE2 and PGD2: concomitant increase
15-PGDH
  15-PGDH specific activity: significantly reduced
[4]; aged cartilage, SW treated vs vehicle treated
  number of mitochondria per cell (TEM images): significant increase
[4]; aged chondrocytes, SW treatment, compared with young cartilage
  mitochondria per cell, quantification with Image J: restoring the mitochondria number in aged chondrocytes to the level of young cartilage
Knee joints of aged mice
  cartilage structure (safranin O staining of knee joints): improved cartilage structure with increased thickness, GAG staining and smoother cartilage surface
Knee joints of aged mice; vs control
  OARSI Maximum score: significantly decreased
  OARSI Summit score: significantly decreased
[5]
  CCL4 level: significant downregulation
  CCL7 level: significant downregulation
  CXCL10 level: significant downregulation
  IL2 level: significant downregulation
  IL27 level: significant downregulation
  VEGF level: significant downregulation
  inflammatory cytokine levels: overall reduction
[6]; SW vs vehicle treated cells
  Ki67 intensity distribution: increased Ki67 expression
[6]; SW vs vehicle treated explants
  Ki67 positive cells: increase in Ki67 positive cells
[7]
  CCL5 level: significant reduction
  GMCSF level: significant reduction
  IL6 level: significant reduction
